Values quoted from earlier work as cited in patent US6736837B2, “Method for inducing hypothermia for treating neurological disorders” (priority 1997, dated 2004).
Where two headings read alike, the source gives them in different places.

Tested on: tumors
Details: for effect on tumor size: same dose

O=c1[nH]cc(F)c(=O)[nH]1 [5-FU, 5-fluoruracil]
effect on tumors (hamsters, 50 mg/kg, during hypothermia with the tumors maintained at normal body temperature): regression and disappearance of tumors | effect on tumor size (hypothermic animals whose tumors were also hypothermic): did not affect tumor size | effect on tumor size (tumor-bearing animals that were not made hypothermic): did not affect tumor size
